Our source for the IC50 values is publication PMC8911181, “A Novel CDK4/6 and PARP Dual Inhibitor ZC-22 Effectively Suppresses Tumor Growth and Improves the Response to Cisplatin Treatment in Breast and Ovarian Cancer” (International Journal of Molecular Sciences, 2022).

pIC50: −log10 of the molar value.

Holding throughout (assay): Cell viability assay (CCK-8), IC50
Assay type in all cases: cell-based

One assay concerns SKOV3 cells. Conditions: Homo sapiens, SK-OV-3, 6 days, medium replenished every 2 days. Here is the method: (§1) Human breast cancer cell lines MDA-MB-231 and SUM-159, and human ovarian cancer cell lines OVCAR5 and SKOV3 were obtained from the American Type Culture Collection (ATCC). MDA-MB-231 cells were cultured in L-15 medium with 10% fetal bovine serum (FBS), incubated at 37 °C in a humidified incubator without additional CO2. SUM-159 cells were maintained in Dulbecco’s modified Eagle’s medium (DMEM) containing 10% FBS, and OVCAR5 and SKOV3 cells were incubated in Roswell Park Memorial Institute (RPMI)-1640 medium with 10% FBS and cultured at 37 °C in a humidified incubator containing 5% CO2.
(§2) Cell viability assay was performed as described before. Briefly, 2500/well of breast or ovarian cancer cells were seeded into a 96-well plate; grown overnight; treated with indicated concentration of Olaparib, LY2835219, ZC22, LP-1, GC-24, or cisplatin alone or together for an indicated amount of time; and then incubated with Cell Counting kit-8 (CCK-8) substrate (Dojindo, Kumamoto, Kyushu Island, Japan) for 1–2 h at 37 °C. Cell viability was calculated by the absorbance at 450 nm measured by the GloMax Explorer (Promega, Madison, WI, USA). Cells without treatment were set as 100%, and medium control (no cells) was set as 0%.
(§3) Figure 1 Synthesis strategy and activity assay of the novel compounds targeting both PARP and CDK4/6. (A) Synthesis strategy of the three novel compounds GC-24, LP-1, and ZC-22. (B) IC50 of GC-24, LP-1, and ZC-22 in breast and ovarian cancer cells. Cells were treated with increasing concentrations of GC-24, LP 1, or ZC-22 for 6 days with replenishment of medium every 2 days. Cell proliferation was analyzed by CCK-8 assays. (C) The reagents and conditions used for the chemical synthesis of ZC-22 in this study: (a) Pd(AcO)2, BINAP, CS2CO3, 1,4-Dioxane, 100 °C, 12 h; (b) CF3COOH, DCM, Room temperature, 6 h; (c) HOBt, EDCI, DIPEA, DMF, Room temperature, 12 h. TEXT PRINTED IN THE PICTURE: (B) LP-1: MDA-MB-231 IC50 (μM): >50; SUM-159 IC50 (μM): 7.780; OVCAR5 IC50 (μM): 10.11; SKOV3 IC50 (μM): 10.16 | (B) GC-24: MDA-MB-231 IC50 (μM): 33.77; SUM-159 IC50 (μM): 17.77; OVCAR5 IC50 (μM): 26.08; SKOV3 IC50 (μM): >50 | (B) ZC-22: MDA-MB-231 IC50 (μM): 3.608; SUM-159 IC50 (μM): 0.435; OVCAR5 IC50 (μM): 0.758; SKOV3 IC50 (μM): 0.542
(§4) Figure 2 ZC-22 suppresses proliferation of breast and ovarian cancer cells. (A) IC50 of ZC-22, Olaparib, and LY2835219 (Abemaciclib) in breast and ovarian cancer cells. Cells were treated with increasing concentrations of ZC-22, Olaparib, or LY2835219 for 6 days with replenishment of medium every 2 days. Cell proliferation was analyzed by CCK-8 assays. (B) Cell proliferation assay of breast and ovarian cancer cells with indicated treatment. MDA-MB-231 cells were treated with 2 μM Olaparib (OLA) or LY2835219 (LY-2) alone or together (OLA + LY-2) or with ZC-22 alone for 48 or 72 h. SUM-159, OVCAR5, and SKOV3 cells were treated with 0.5 μM OLA or LY-2 alone or together or with ZC-22 alone. Cell proliferation assay was analyzed by CCK-8 assays. Values are means ± SD, n = 3. ns, not significant, * p < 0.05, ** p < 0.01 and *** p < 0.001 for comparisons with the DMSO-treated group using an unpaired t-test. TEXT PRINTED IN THE PICTURE: (A) ZC-22: MDA-MB-231 IC50 (μM): 3.608; SUM-159 IC50 (μM): 0.435; OVCAR5 IC50 (μM): 0.758; SKOV3 IC50 (μM): 0.542 | (A) LY2835219: MDA-MB-231 IC50 (μM): 11.28; SUM-159 IC50 (μM): 0.664; OVCAR5 IC50 (μM): 9.791; SKOV3 IC50 (μM): 1.158 | (A) Olaparib: MDA-MB-231 IC50 (μM): 32.13; SUM-159 IC50 (μM): 19.29; OVCAR5 IC50 (μM): 30.51; SKOV3 IC50 (μM): >50

In a further assay the test system is OVCAR5 cells. The note with it: Homo sapiens, OVCAR-5, 6 days, medium replenished every 2 days. The method, then: as §1, §2, §3, §4
The next assay has as its system SUM-159 cells. The note with it: Homo sapiens, SUM159, 6 days, medium replenished every 2 days. The method, then:
as §1, §2, §3, §4

The test system of another assay is MDA-MB-231 cells. The note with it: Homo sapiens, 6 days, medium replenished every 2 days. Here is the method:
as §1, §2, §3, §4

By pIC50 is commonly meant the negative decadic logarithm of the IC50, by convention in mol/L. Read a high pIC50 as a low IC50. Take `CCN1CCN(Cc2ccc(Nc3ncc(F)c(-c4cc(F)c5nc(C)n(C(C)C)c5c4)n3)nc2)CC1` [LY2835219, Abemaciclib, reference compound]: the pIC50 with SKOV3 cells is 5.94; in the assay on OVCAR5 cells it was 5.01; with SUM-159 cells, 6.18; in the assay on MDA-MB-231 cells, 4.95.

As to `Cc1nc2c(F)cc(-c3nc(Nc4ccc(N5CCN(C(=O)c6cc(Cc7n[nH]c(=O)c8ccccc78)ccc6F)CC5)cn4)ncc3F)cc2n1C(C)C` [ZC-22, 4-(4-fluoro-3-(4-(6-((5-fluoro-4-(4-fluoro-1-isopropyl-2-methyl-1H-benzo[d]imidazole-6-yl)pyrimidin-2-yl)amino)pyridin-3-yl)piperazine-1-carbonyl)benzyl)phthalazin-1(2H)-one], the pIC50 in the assay with SKOV3 cells was 6.27; in the assay on OVCAR5 cells, 6.12; in the assay on SUM-159 cells, 6.36; in the assay on MDA-MB-231 cells it was 5.44.
